From ChEMBL document CHEMBL1201862, “PubChem BioAssay data set” (2004) come the findings set out here.

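Cultured in 96-well plates, cells were exposed to test compound for 48 hours across five concentrations. At the GI50, growth is halved.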 Calls of active or inactive are those of the source. No stated cut-off is given here; in the data, active = GI50 up to about 1.1 µM and inactive = higher. Where only a bound is given, the exact number is not on record here.

Some test systems named below: SF-268; DMS-273; SK-MEL-2; RPMI-8226; RXF 393; HT-29; DLD-1; TK-10; COLO 205; A498; M14; ACHN; HCT-116; OVCAR-8; LOX IMVI; NCI-H226; OVCAR-5; CAKI-1; NCI/ADR-RES; NCI-H522.
Common to all, as to assay: growth of human tumour cells (NCI), 48 h

Take `CC1=NC=C(O)c2ccccc2O1`: the GI50 in the experiment with SF-268, in the experiment with DMS-273, with SK-MEL-2, in the experiment on RPMI-8226, in the experiment on RXF 393 and in the experiment with HT-29 was > 100 µM (inactive) each time. For the same molecule, the GI50 with DLD-1, in the experiment on TK-10, in the experiment on COLO 205, in the experiment with A498, in the experiment with M14 and in the experiment on ACHN was > 100 µM (inactive) each time. The GI50 with HCT-116, with OVCAR-8 and in the experiment with LOX IMVI was > 100 µM (inactive) throughout.
For the molecule `CSc1cc(-c2cc3ccccc3o2)oc(=O)c1C#N`, the GI50 with SF-268 is > 100 µM (inactive); in the experiment on DMS-273 it was > 100 µM (inactive); in the experiment with SK-MEL-2, > 100 µM (inactive); in the experiment with RPMI-8226, 27.7 µM (inactive); in the experiment with RXF 393, 71.4 µM (inactive); in the experiment on NCI-H226, 0.165 µM (active). Further, the GI50 in the experiment with OVCAR-5 is 12.2 µM (inactive); in the experiment on HT-29, > 100 µM (inactive); with CAKI-1 it was 8.13 µM (inactive); in the experiment with DLD-1, > 100 µM (inactive); in the experiment with TK-10, 21.8 µM (inactive); with COLO 205, > 100 µM (inactive). For the same molecule, the GI50 with A498, in the experiment on M14, in the experiment with ACHN, with HCT-116, with OVCAR-8 and in the experiment with LOX IMVI was > 100 µM (inactive) in each case.
As to `C/C(=N\NS(=O)(=O)c1ccccc1)c1ccccc1`, the GI50 is > 100 µM (inactive) in the experiment with SF-268; > 100 µM (inactive) in the experiment with DMS-273; > 100 µM (inactive) with SK-MEL-2; > 100 µM (inactive) in the experiment with RPMI-8226; > 100 µM (inactive) in the experiment with RXF 393; > 80.4 µM (inactive) in the experiment on NCI-H226. The GI50 with OVCAR-5, in the experiment on HT-29, with CAKI-1, in the experiment on NCI/ADR-RES, with DLD-1 and with NCI-H522 was > 100 µM (inactive) each time. For the same molecule, the GI50 in the experiment with COLO 205, with HCT-116, in the experiment with OVCAR-8 and in the experiment on LOX IMVI was > 100 µM (inactive) throughout.
With `Cc1cn(C2CC(O)C(CO)C2C)c(=O)[nH]c1=O` (stereo not given), the GI50 with SF-268, in the experiment with DMS-273, in the experiment on SK-MEL-2, with RXF 393, in the experiment with NCI-H226 and in the experiment with OVCAR-5 was > 100 µM (inactive) in each case. For the same molecule, the GI50 in the experiment on HT-29, with DLD-1, with NCI-H522, in the experiment with COLO 205, with M14 and in the experiment on ACHN was > 100 µM (inactive) throughout. Further, the GI50 in the experiment with HCT-116, in the experiment on OVCAR-8 and in the experiment with LOX IMVI was > 100 µM (inactive) each time.
For the molecule `CCOC(=O)/C=C(\C)c1ccc(Cl)cc1`, the GI50 with SF-268 was > 100 µM (inactive); in the experiment on DMS-273 it was > 100 µM (inactive); in the experiment with SK-MEL-2, > 100 µM (inactive); with RPMI-8226, > 100 µM (inactive); in the experiment with RXF 393, > 100 µM (inactive); in the experiment on NCI-H226, 54.8 µM (inactive). Moreover, the GI50 in the experiment on OVCAR-5, in the experiment with HT-29, in the experiment on CAKI-1, in the experiment with DLD-1, with TK-10 and with COLO 205 was > 100 µM (inactive) throughout. Moreover, the GI50 in the experiment with A498, in the experiment with M14, with ACHN, with HCT-116, in the experiment with OVCAR-8 and with LOX IMVI was > 100 µM (inactive) in each case.
Take `C=C1C[C@@H]2C[C@@H](C)CC(O)[C@]2(CCCN)C1O` (stereo not given in full): the GI50 in the experiment on SF-268, in the experiment on DMS-273, in the experiment on SK-MEL-2, in the experiment on RPMI-8226, in the experiment on RXF 393 and in the experiment with NCI-H226 was > 100 µM (inactive) throughout. Moreover, the GI50 with OVCAR-5, with HT-29, in the experiment on CAKI-1, with DLD-1, in the experiment with NCI-H522 and in the experiment with TK-10 was > 100 µM (inactive) in each case. For the same molecule, the GI50 in the experiment with COLO 205, in the experiment with A498, in the experiment with M14, in the experiment with ACHN, with HCT-116 and in the experiment with OVCAR-8 was > 100 µM (inactive) throughout. Also, the GI50 in the experiment with LOX IMVI is > 100 µM (inactive).
For `CCOC(=O)/C=C/c1c(C)[nH]c(=O)[nH]c1=O`, the GI50 was > 250 µM (inactive) with SF-268; > 176 µM (inactive) in the experiment on DMS-273; > 250 µM (inactive) in the experiment on SK-MEL-2; > 250 µM (inactive) in the experiment with RPMI-8226; > 237 µM (inactive) in the experiment with RXF 393; > 250 µM (inactive) in the experiment on NCI-H226. The GI50 with OVCAR-5 is > 94.4 µM (inactive); with HT-29, > 250 µM (inactive); in the experiment on CAKI-1, 191 µM (inactive); in the experiment with NCI/ADR-RES it was > 250 µM (inactive); with DLD-1 it was > 250 µM (inactive); with NCI-H522, 102 µM (inactive). The GI50 in the experiment on COLO 205 is > 250 µM (inactive); with A498 it was > 250 µM (inactive); in the experiment with HCT-116 it was > 250 µM (inactive); in the experiment with OVCAR-8 it was 212 µM (inactive); in the experiment with LOX IMVI, > 250 µM (inactive).
Regarding `CC1(C)O[C@@H](C[C@]2(C#N)C[C@H](CCl)OC(C)(C)O2)C[C@@H](C#N)O1`, the GI50 in the experiment on SF-268, in the experiment with DMS-273, in the experiment with SK-MEL-2, in the experiment with RPMI-8226, in the experiment with RXF 393 and in the experiment with NCI-H226 was > 100 µM (inactive) in each case. Also, the GI50 with OVCAR-5, in the experiment on HT-29, in the experiment on CAKI-1, in the experiment on DLD-1, in the experiment with NCI-H522 and in the experiment on TK-10 was > 100 µM (inactive) throughout. Further, the GI50 in the experiment with COLO 205, in the experiment on A498, with M14, with ACHN, in the experiment with HCT-116 and in the experiment with OVCAR-8 was > 100 µM (inactive) throughout. Besides, in the experiment on LOX IMVI, the GI50 is > 100 µM (inactive).
As to `O=C(Nc1cccc(O)c1)C(=O)C(C(=O)c1ccccc1F)C1OC(=O)c2ccccc21` (stereo not given), the GI50 in the experiment on SF-268 is 19.6 µM (inactive); in the experiment with DMS-273 it was 24.2 µM (inactive); with SK-MEL-2 it was 20.9 µM (inactive); in the experiment with RPMI-8226 it was 23.4 µM (inactive); in the experiment on RXF 393, 18.5 µM (inactive); with NCI-H226, 17.2 µM (inactive). Also, the GI50 in the experiment with OVCAR-5 is 57 µM (inactive); with HT-29, 36.7 µM (inactive); in the experiment with CAKI-1, 32.9 µM (inactive); with DLD-1 it was 34.2 µM (inactive); with NCI-H522, 17.3 µM (inactive); with TK-10 it was 58.9 µM (inactive). In addition, the GI50 in the experiment with COLO 205 is 23.2 µM (inactive); in the experiment on A498, 66.5 µM (inactive); with M14 it was 23.5 µM (inactive); with ACHN it was 37.7 µM (inactive); with HCT-116, 18 µM (inactive); in the experiment on OVCAR-8, 14.6 µM (inactive). Besides, in the experiment on LOX IMVI, the GI50 is 22.9 µM (inactive).
Regarding `CN1CCN(P2(=S)Oc3ccc4ccccc4c3-c3c(ccc4ccccc34)O2)CC1`, the GI50 with SF-268 was 38.4 µM (inactive); in the experiment on DMS-273, 22.4 µM (inactive); with SK-MEL-2, 18.8 µM (inactive); in the experiment with RPMI-8226 it was 7.8 µM (inactive); in the experiment with RXF 393 it was 25.6 µM (inactive); with NCI-H226, 26.2 µM (inactive). The GI50 is 54.7 µM (inactive) in the experiment with OVCAR-5; 19.6 µM (inactive) in the experiment with HT-29; 15.4 µM (inactive) in the experiment on CAKI-1; 28.7 µM (inactive) in the experiment with NCI/ADR-RES; 34.6 µM (inactive) with DLD-1; 24.2 µM (inactive) in the experiment on NCI-H522. Moreover, the GI50 was 16.5 µM (inactive) with COLO 205; 52.5 µM (inactive) with A498; 32.7 µM (inactive) in the experiment on HCT-116; 37.2 µM (inactive) in the experiment with OVCAR-8; 18.9 µM (inactive) in the experiment with LOX IMVI.
With `CC(C)=CCC/C(C)=C/CCC1(C)C=Cc2c(c3ccccc3oc2=O)O1` (stereo not given), the GI50 in the experiment on SF-268 is 20.6 µM (inactive); with DMS-273, 16.9 µM (inactive); in the experiment on SK-MEL-2 it was 17.4 µM (inactive); with RPMI-8226, 18.2 µM (inactive); with RXF 393, 3.71 µM (inactive); with NCI-H226 it was 16.1 µM (inactive). For the same molecule, the GI50 in the experiment with OVCAR-5 was 18.6 µM (inactive); with HT-29 it was 18.8 µM (inactive); with CAKI-1, 17.2 µM (inactive); in the experiment on NCI/ADR-RES it was 16.7 µM (inactive); in the experiment on DLD-1, 14.7 µM (inactive); in the experiment with NCI-H522 it was 14.7 µM (inactive). In addition, the GI50 is 19.1 µM (inactive) in the experiment on COLO 205; 13.4 µM (inactive) with A498; 14.8 µM (inactive) with HCT-116; 16.7 µM (inactive) in the experiment on OVCAR-8; 18 µM (inactive) in the experiment with LOX IMVI.
